Data as given in the supplement of paper PMC10307832.

Tests used:
Experiment in all cases: relative viability (nuclei count vs DMSO), 5 days (fraction); higher = more cells survive
BI-D1870 + Foretinib = compound: CC(C)CCN1c2nc(Nc3cc(F)c(O)c(F)c3)ncc2N(C)C(=O)C1C [BI-D1870] + COc1cc2c(Oc3ccc(NC(=O)C4(C(=O)Nc5ccc(F)cc5)CC4)cc3F)ccnc2cc1OCCCN1CCOCC1 [Foretinib] (partner 0.25 µM)
Method in brief: (§1)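 Each reported value is a median over duplicate plates. It expresses relative viability: treated-well nuclei count divided by vehicle-well nuclei count. Lung cancer cell lines in 1536-well plates were dosed by pin tool a day after seeding, alone with one drug or with a fixed anchor-drug dose plus five library-drug doses (not always all listed) in √10 steps, and nuclei were counted after 5 days.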

BI-D1870 + Vorinostat = compound: CC(C)CCN1c2nc(Nc3cc(F)c(O)c(F)c3)ncc2N(C)C(=O)C1C [BI-D1870] + O=C(CCCCCCC(=O)Nc1ccccc1)NO [Vorinostat] (partner 1 µM)
Method in brief: as §1

Zebularine + Trametinib = compound: O=c1ncccn1[C@@H]1O[C@H](CO)[C@@H](O)[C@H]1O [Zebularine] + CC(=O)Nc1cccc(-n2c(=O)n(C3CC3)c(=O)c3c(Nc4ccc(I)cc4F)n(C)c(=O)c(C)c32)c1 [Trametinib] (partner 0.02 µM)
Method in brief: as §1

Zebularine + Navitoclax = compound: O=c1ncccn1[C@@H]1O[C@H](CO)[C@@H](O)[C@H]1O [Zebularine] + CC1(C)CCC(c2ccc(Cl)cc2)=C(CN2CCN(c3ccc(C(=O)NS(=O)(=O)c4ccc(N[C@H](CCN5CCOCC5)CSc5ccccc5)c(S(=O)(=O)C(F)(F)F)c4)cc3)CC2)C1 [Navitoclax] (partner 0.5 µM)
Method in brief: as §1

| Cell Line | relative viability (BI-D1870 + Foretinib; first compound 0.04 µM) | relative viability (BI-D1870 + Foretinib; first compound 0.1265 µM) | relative viability (BI-D1870 + Foretinib; first compound 0.4 µM) | relative viability (BI-D1870 + Foretinib; first compound 1.265 µM) | relative viability (BI-D1870 + Foretinib; first compound 4 µM) | relative viability (BI-D1870 + Vorinostat; first compound 0.04 µM) | relative viability (BI-D1870 + Vorinostat; first compound 0.1265 µM) | relative viability (BI-D1870 + Vorinostat; first compound 0.4 µM) | relative viability (BI-D1870 + Vorinostat; first compound 1.265 µM) | relative viability (BI-D1870 + Vorinostat; first compound 4 µM) | relative viability (Zebularine + Trametinib; first compound 1 µM) | relative viability (Zebularine + Trametinib; first compound 3.162 µM) | relative viability (Zebularine + Trametinib; first compound 10 µM) | relative viability (Zebularine + Trametinib; first compound 31.62 µM) | relative viability (Zebularine + Trametinib; first compound 100 µM) | relative viability (Zebularine + Navitoclax; first compound 1 µM) | relative viability (Zebularine + Navitoclax; first compound 3.162 µM) | relative viability (Zebularine + Navitoclax; first compound 10 µM) | relative viability (Zebularine + Navitoclax; first compound 31.62 µM) | relative viability (Zebularine + Navitoclax; first compound 100 µM) |
| --- | --- | --- | --- | --- | --- | --- | --- | --- | --- | --- | --- | --- | --- | --- | --- | --- | --- | --- | --- | --- |
| HCC-15 | 1.11 | 0.911 | 1 | 0.921 | 0.599 | 0.81 | 0.782 | 0.786 | 0.987 | 0.678 | 0.375 | 0.377 | 0.395 | 0.392 | 0.298 | 0.775 | 0.72 | 0.507 | 0.781 | 0.469 |
| HCC-44 |  |  |  |  |  | 1.14 | 1.07 | 1.16 | 1.14 | 1.14 | 1.04 | 1.11 | 0.968 | 1.1 | 0.668 | 0.965 | 0.943 | 0.669 | 0.973 | 0.248 |
| HCC-78 | 0.599 | 0.522 | 0.529 | 0.592 | 0.481 | 0.438 | 0.408 | 0.392 | 0.497 | 0.381 | 0.893 | 0.742 |  | 0.794 | 0.436 | 0.811 | 0.775 | 0.592 | 0.497 | 0.22 |
| HCC-366 | 0.957 | 0.906 | 0.932 | 0.896 | 0.943 | 0.502 | 0.331 | 0.294 | 0.316 | 0.1 | 0.425 | 0.402 | 0.274 | 0.313 | 0.0973 | 1.12 | 1.02 | 0.449 | 0.556 | 0.0921 |
| HCC-827 | 1.05 | 0.968 | 0.967 | 1.06 | 1.03 | 0.771 | 0.846 | 0.818 | 0.988 | 0.765 | 0.535 | 0.574 | 0.492 | 0.546 | 0.404 | 0.98 | 0.986 | 0.968 | 0.714 | 0.418 |
| IA-LM | 1.24 | 1.07 | 1.32 | 1.03 | 0.977 | 1.02 | 0.927 | 0.913 | 1.08 | 0.874 |  |  |  |  |  | 0.899 | 0.688 | 0.506 | 0.805 | 0.616 |
| LCLC-103H | 0.842 | 0.662 | 0.777 | 0.866 | 0.566 | 0.886 | 0.719 | 0.786 | 0.755 | 0.535 | 0.727 | 0.672 | 0.604 | 0.675 | 0.612 |  |  |  |  |  |
| NCI-H358 | 0.657 | 0.529 | 0.669 | 0.752 | 0.433 | 0.834 | 0.61 | 0.519 | 0.386 | 0.229 | 0.146 | 0.134 | 0.117 | 0.145 | 0.113 |  |  |  |  |  |
| NCI-H522 |  |  |  |  |  | 1.02 | 1.09 | 1.01 | 0.907 | 0.94 | 0.815 | 0.704 | 0.667 | 0.758 | 0.723 |  |  |  |  |  |
| NCI-H650 | 1.03 | 0.937 | 0.968 | 1.04 | 0.894 | 0.478 | 0.407 | 0.413 | 0.413 | 0.386 | 0.895 | 0.97 | 0.826 | 0.471 | 0.262 |  |  |  |  |  |
| NCI-H661 | 1.02 | 0.989 | 1.04 | 1.03 | 0.969 | 0.815 | 0.806 | 0.764 | 0.691 | 0.451 | 0.601 | 0.596 | 0.457 | 0.651 | 0.639 |  |  |  |  |  |
| NCI-H1299 | 1.13 | 1.07 | 1.08 | 1.08 | 0.952 |  |  |  |  |  |  |  |  |  |  | 1.05 | 1.07 | 0.782 | 1.06 | 0.526 |
| NCI-H1563 | 0.957 | 0.927 | 0.939 | 1.04 | 0.967 |  |  |  |  |  |  |  |  |  |  |  |  |  |  |  |
| NCI-H1623 | 0.913 | 0.843 | 0.801 | 0.903 | 0.794 |  |  |  |  |  |  |  |  |  |  |  |  |  |  |  |
| NCI-H1648 |  |  |  |  |  | 0.345 | 0.333 |  | 0.626 | 0.697 | 0.628 | 0.469 | 0.435 | 0.421 | 0.419 |  |  |  |  |  |
| NCI-H1703 | 0.381 |  | 0.295 | 0.355 | 0.385 |  |  |  |  |  |  |  |  |  |  | 1.17 | 0.915 | 0.859 | 1.31 | 0.813 |
| NCI-H1792 |  |  |  |  |  |  |  |  |  |  | 0.472 | 0.351 | 0.187 | 0.176 | 0.182 | 0.61 | 0.679 | 0.816 | 0.325 | 0.18 |
| NCI-H2342 | 1.04 | 1 | 1.11 | 1.18 | 1.23 | 0.806 | 0.61 | 0.718 | 0.812 | 0.966 | 0.891 | 0.768 | 0.751 | 0.756 | 0.712 |  |  |  |  |  |
| SW 900 | 0.855 | 0.949 | 0.893 | 0.751 | 1.22 | 0.504 | 0.537 | 0.582 | 0.725 | 0.466 | 0.759 | 0.789 |  | 0.899 | 1.15 |  |  |  |  |  |
